Measured values: patent US9901646B2, “Methods for induction of antigen-specific immune tolerance” (École Polytechnique Fédérale de Lausanne (EPFL), priority 2010, dated 2018)
8‑arm PEG = 8-arm polyethylene glycol (PEG) dendrimer, conjugated via pyridyldisulfide groups to cysteine thiols

What was measured:
[1] = test system: OT-I CD8+ T cells; assay: OT-I CD8+ T cell adoptive transfer, short-term proliferation study (Example 21); type: in vivo, mouse; settings: intravenous
Procedure: CD8^+ T cells from OT-I (CD45.2^+) mouse spleens were isolated using a CD8 magnetic bead negative selection kit (Miltenyi Biotec) as per the manufacturer's instructions. Freshly isolated CD8^+ OT-I cells were resuspended in PBS and labeled with […] carboxyfluorescein succinimidyl ester (CFSE, Invitrogen) for 6 min at room temperature, and the reaction was quenched for 1 min with an equal volume of IMDM with 10% FBS (Gibco). Cells were washed, counted, and resuspended in pure IMDM prior to injection. 3×10^6 CFSE-labeled CD8^+ OT-I cells were injected intravenously into the tail vein of recipient CD45.1^+ mice. For short-term proliferation studies, 10 μg of ERY1-OVA or OVA, or an equimolar dose of TER119-SIINFEKL in 100 μL volume was injected 24 h following adoptive transfer. Splenocytes were harvested 5 d following antigen administration and stained for analysis by flow cytometry.
(§1) The following anti-mouse antibodies were used for flow cytometry: CD1d Pacific Blue, CD3E PerCP-Cy5.5, CD8a PE-Cy7, CD45.2 Pacific Blue, IFNγ-APC, CD8a APC-eF780, (all from eBioscience), in addition to fixable live/dead dye (Invitrogen), and annexin-V-Cy5 labeling kit (BioVision). Samples were analyzed on a CyAn ADP flow cytometer (Beckman Coulter). Cells were washed first with PBS, stained for 20 min on ice with live/dead dye, blocked for 20 min on ice with 24G2 hybridoma medium, surface stained for 20 min on ice, fixed in 2% paraformaldehyde for 20 min ice, intracellularly stained in the presence of 0.5% saponin for 45 min on ice, followed by a final wash prior to analysis. For apoptosis staining, annexin-V-Cy5 was added 5 min prior to analysis.

[2] = test system: OT-I CD8+ T cells; assay: OT-I tolerance and challenge model (Example 21); type: in vivo, mouse
Procedure: 3×10^5 CFSE-labeled OT-I CD8^+ T cells were injected into CD45.1^+ recipient mice as described above. 1 and 6 d following adoptive transfer, mice were intravenously administered 10 μg of ERY1-OVA or OVA, or an equimolar dose of TER119-SIINFEKL in 100 μL, saline into the tail vein. 15 d following adoptive transfer, mice were challenged with 5 μg OVA and 25 ng ultra-pure Escherichia coli LPS (InvivoGen) in 25 μL intradermally into each rear leg pad (Hock method, total dose of 10 μg OVA and 50 ng LPS). Mice were sacrificed 4 d following challenge, and spleen and draining lymph node cells were isolated for restimulation. For flow cytometry analysis of intracellular cytokines, cells were restimulated in the presence of 1 mg/mL OVA or 1 μg/mL SIINFEKL peptide (Genscript) for 3 h. Brefeldin-A (Sigma, 5 μg/mL) was added and restimulation resumed for an additional 3 h prior to staining and flow cytometry analysis.
as §1

[3] = test system: mouse erythrocytes; assay: scFv binding to erythrocytes, flow cytometry with anti-6×His-PE
Procedure: FIG. 19 presents experimental results as a flow cytometry histogram. Mouse erythrocytes were incubated with TER119-SIINFEKL (grey filled histogram) or albumin (empty histogram). Fluorescent signal comes from the anti-6×His-PE antibody used in detection of the scFv.

[4] = test system: human endothelial HUVECs; assay: Binding of bacteria displaying peptide to cells, flow cytometry; settings: peptide displayed on bacteria
Procedure: (§2) Method: To characterize specificity, individual sequenced clones were analyzed using cytometry for binding toward human erythrocytes (type A and B), mouse erythrocytes, HEK293T cells and HUVECs. For binding assays, 10^6 mammalian cells were scanned on an AccuriA6 after co-incubation with 5×10^7 bacteria for 1 h at 4° C. followed by three washes in HFS (5% HSA, 2% FBS in PBS). The percentage of cells with green bacteria bound was calculated using FLOWJO Software.

[5] = test system: human erythrocytes (type A and B); assay: as above; settings: peptide displayed on bacteria, 1 h at 4° C.
Procedure: as §2

[6] = test system: human epithelial 293T cells; assay: as above; settings: peptide displayed on bacteria
Procedure: as §2

[7] = test system: mouse erythrocytes; assay: 8-arm PEG constructs binding to erythrocytes in vitro, flow cytometry
[8] = test system: circulating erythrocytes; assay: 8-arm PEG constructs binding to circulating erythrocytes after intravenous injection, flow cytometry; type: in vivo, mouse
Text: FIG. 17 presents experimental results depicting erythrocyte cell-surface half-life of 8-arm PEG-ERY1 (filled circles) and 8-arm PEG-MIS (empty boxes), determined by flow cytometry.

[9] = Immunogenicity of erythrocyte-bound versus wild-type asparaginase, serum IgG ELISA; type: in vivo, mouse; settings: 2-dose regimen, 15 μg i.v. every 2 days, up to 21 days following the final injection
Procedure: A mouse erythrocyte-binding variant of asparaginase (ERY1-ASNase) was created by conjugating the mouse erythrocyte-specific peptide ERY1 (Kontos and Hubbell, 2010). To determine the immunogenicity of erythrocyte-bound versus wild-type asparaginase, a study was performed to evaluate to evaluate two regimens, namely exposure to a 2-dose and a 6-dose regimen of the ERY conjugate (ERY1-ASNase) or the native form (ASPARAGINASE MEDAC, Medac GmbH; which was also used as the raw material for the ERY1-ASNase conjugate). In each regimen, 15 μg of ERY1-ASNase or ASNase was administered intravenously every 2 days, and blood was drawn every 7 days.
(§3) Desired dosages of ERY1-ASNase or ASNase were prepared in sterile 0.9% saline, and 100 μL of the solution was injected into the tail vein of anesthetized C57BL/6 mice. Blood was drawn at pre-determined time points either by cheek puncture or tail incisions.
(§4) Anti-asparaginase antibody detection from serum method Serum from experimental groups was serially diluted into PBS and incubated for 2 h at RT on ASNase-coated ELISA plates. HRP-conjugated anti-mouse IgG (Southern Biotech) was used as the detection antibody.

[10] = Cross-over study: reversal of pre-existing immunity towards asparaginase; type: in vivo, mouse; settings: 21 days following multiple intravenous doses two days apart
Procedure: A cross-over study was performed to determine if erythrocyte-binding asparaginase could reverse immunity towards clinical asparaginase. Mice were intravenously administered multiple doses of wild-type asparaginase two days apart. […] Immunized mice were then therapeutically treated with erythrocyte-binding asparaginase regimens at varying doses. In both dosing regimens, ERY-conjugated asparaginase reduced antibody levels approx. 10-fold, thus reversing pre-existing humoral immunity
as §3
Serum from experimental groups was serially diluted into PBS and incubated for 2 h at RT on ASNase-coated ELISA plates. HRP-conjugated anti-mouse IgG (Southern Biotech) was used as the detection antibody.

[11] = Prophylaxis study: tolerance towards wild-type asparaginase; type: in vivo, mouse; settings: re-administration / six challenges with wild-type asparaginase
Procedure: A prophylaxis study was performed to determine if erythrocyte-binding asparaginase induced bona-fide immune tolerance towards wild-type asparaginase. Mice previously administered with wild-type clinical asparaginase were challenged with an additional dose following the onset of humoral immunity. […] On average, mice tolerized with erythrocyte-binding asparaginase developed approx. 6000-fold fewer antibodies towards clinical wild-type asparaginase.
as §3, §4

[12] = test system: mouse erythrocytes; assay: TER119-ChrA binding to erythrocytes; settings: data not shown
[13] = test system: BDC2.5 CD4 T cells; assay: Co-culture of BDC2.5 splenic dendritic cells and CD4 T cells, proliferation; type: cell-based, mouse; settings: co-culture with BDC2.5 splenic dendritic cells
Text: FIG. 24 is a plot of experimental results showing proliferation of CD4 T cells from the transgenic NODBDC2.5 mouse in co-culture with splenic DCs, with various media additives.
To study T cell behavior towards the chromogranin-A antigen variants, the NODBDC2.5 transgenic mouse was used, which harbors T cells specific for the recognition of the chromogranin-A antigen.

[14] = following challenge with OVA and LPS
[15] = i.v. 1 and 6 days after adoptive transfer, 4 d after OVA/LPS challenge

Which results are given for “TER119-SIINFEKL: recombinant fusion of scFv TER119 to the MHC-I immunodominant domain of OVA (SGLEQLESIINFEKL; epitope)”?
PD-1+ proliferating OT-I CD8+ T cells compared to OVA ([1]; 10 μg or equimolar dose): much higher numbers; annexin-V+ proliferating OT-I CD8+ T cells compared to OVA ([1]; 10 μg or equimolar dose): much higher numbers; OT-I CD8+ T cell proliferation (CFSE dilution) compared to ERY1-OVA or OVA ([1]; spleen, 5 days, dose equimolar to 10 μg OVA): markedly enhanced; fewer IFNγ-expressing cells in lymph nodes compared to challenge control mice [2, 14]: 33 fold; fewer IFNγ-expressing cells in lymph nodes compared to mice treated with an equivalent dose of OVA [2, 14]: over 14 fold; fewer OT-I CD8+ T cells in draining lymph nodes as compared to OVA-treated mice [2, 15]: over 13 fold; fewer OT-I CD8+ T cells in draining lymph nodes than challenge control mice [2, 15]: over 42 fold; binding to mouse erythrocytes [3]: bound mouse erythrocytes

For “GQSGQSWSRAILPLFKIQPVGSSGGS (Erythrocyte Binding Peptide) [ERY50]”, which “binding to endothelial HUVECs” value [4] is on record?
The value was “bound epithelial/endothelial cells”.

And the “binding to human erythrocytes, specificity as compared to 293T cells and HUVECs” value [5]?
The value was “bound human erythrocytes”.

What about the “binding to epithelial 293T cells” value [6] of the same molecule?
Its value is “bound epithelial/endothelial cells”.

Which results are given for “8-arm PEG-ERY1: fluorescent 8-arm PEG construct conjugated with ERY1 peptide by disulfide bond (H-WMVLPWLPGTLDGGSGC(8‑arm PEG)RG-NH2; also: Cys disulfide-linked to 8-arm PEG scaffold (fluorescent))”?
binding to mouse erythrocytes following in vitro incubation [7]: bind to mouse erythrocytes; binding to circulating erythrocytes upon intravenous injection ([8]; flow cytometry): bind to circulating erythrocytes; cell-surface half-life on circulating erythrocytes ([8]; intravenous administration): 2.2 h; time detected on circulating erythrocytes following intravenous administration ([8]; intravenous administration): 5 h

B1: asparaginase (protein, UniProt P00805 23-348, looked up)
L-asparaginase 2: LPNITILATGGTIAGGGDSATKSNYTVGKVGVENLVNAVPQLKDIANVKGEQVVNIGSQDMNDNVWLTLAKKINTDCDKTDGFVITHGTDTMEETAYFLDLTVKCDKPVVMVGAMRPSTSMSADGPFNLYNAVVTAADKASANRGVLVVMNDTVLDGRDVTKTNTTDVATFKSVNYGPLGYIHNGKIDYQRTPARKHTSDTPFDVSKLNELPKVGIVYNYANASDLPAKALVDAGYDGIVSAGVGNGNLYKSVFDTLATAAKTGTAVVRSSRVPTGATTQDAEVDDAKYGFVASGTLNPQKARVLLQLALTQTKDPQQIQQIFNQY
notes: native asparaginase, Medac GmbH
Which “asparaginase-specific antibody titers (immunogenicity)” value [9] does the source give for B1 here?
Its value is “induced vigorous immunity”.

What about the “anti-asparaginase antibodies in serum” value [10] of the same molecule?
The value was “high levels of anti-asparaginase antibodies”.

And the “antibody response after challenge with wild-type asparaginase” value [11]?
The value was “increased or remained high”.

B2: TER119-ChrA: chromogranin-A mimotope 1040-p31 recombinantly fused to mouse erythrocyte-specific scFv TER119 (protein)
scFv: EVKLQESGGGLVQPGGSLKLSCVASGFTFRDHWMNWVRQAPGKTMEWIGDIRPDGSDTNYAPSVRNRFTISRDNTRSILYLQMGNMRSDYTATYYCVRDSPTRAGLMDAWGQGTSVTVSSAGGGGSGGGGSGGGGSGGGGSDIQMTQSPSVLSASVGDRVTLNCKASQNINKYLNRYQQKLGEAPKVLVYNTNNLQTGIPSRFSGSGSGTDFTLTISSLQPEDFATYFCFQHYTWPTFGGVTKLEIKRTHHHHHHGGGYVRPLWVRME
Which results are given for B2?
binding to mouse erythrocytes [12]: tightly bound mouse erythrocytes; processing and display on MHC-II, priming of antigen-specific proliferation of BDC2.5 CD4 T cells in vitro [13]: efficiently processed
